# Experimental data from BindingDB's records for doi:10.1124/jpet.301.3.1097 (Harvard University, 2002).
# What was measured:
# [1] = molecular target: Sodium-dependent dopamine transporter (Rattus norvegicus, UniProt P23977)
# [2] = molecular target: Norepinephrine transporter (Rattus norvegicus, UniProt Q9JIA2)
# [3] = molecular target: Sodium-dependent serotonin transporter (Rattus norvegicus, UniProt P31652)
# Sodium-dependent serotonin transporter, sequence (P31652 whole entry): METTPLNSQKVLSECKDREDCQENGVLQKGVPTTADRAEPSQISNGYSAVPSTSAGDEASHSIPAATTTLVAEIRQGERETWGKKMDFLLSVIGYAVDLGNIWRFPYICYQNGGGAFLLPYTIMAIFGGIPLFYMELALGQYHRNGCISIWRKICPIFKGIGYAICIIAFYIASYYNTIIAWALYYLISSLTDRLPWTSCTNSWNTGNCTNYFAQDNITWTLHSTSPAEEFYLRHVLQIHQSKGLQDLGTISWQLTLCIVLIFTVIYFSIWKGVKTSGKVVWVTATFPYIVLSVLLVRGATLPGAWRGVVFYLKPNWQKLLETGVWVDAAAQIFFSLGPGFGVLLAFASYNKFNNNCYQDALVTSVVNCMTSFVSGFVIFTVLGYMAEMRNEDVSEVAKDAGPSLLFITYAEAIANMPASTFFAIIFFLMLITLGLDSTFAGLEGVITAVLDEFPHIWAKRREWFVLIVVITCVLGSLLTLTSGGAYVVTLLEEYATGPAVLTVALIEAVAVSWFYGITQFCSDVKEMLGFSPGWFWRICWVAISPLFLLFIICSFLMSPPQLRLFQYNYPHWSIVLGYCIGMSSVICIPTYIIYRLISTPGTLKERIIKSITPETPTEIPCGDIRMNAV
# Sodium-dependent dopamine transporter, sequence (P23977 whole entry): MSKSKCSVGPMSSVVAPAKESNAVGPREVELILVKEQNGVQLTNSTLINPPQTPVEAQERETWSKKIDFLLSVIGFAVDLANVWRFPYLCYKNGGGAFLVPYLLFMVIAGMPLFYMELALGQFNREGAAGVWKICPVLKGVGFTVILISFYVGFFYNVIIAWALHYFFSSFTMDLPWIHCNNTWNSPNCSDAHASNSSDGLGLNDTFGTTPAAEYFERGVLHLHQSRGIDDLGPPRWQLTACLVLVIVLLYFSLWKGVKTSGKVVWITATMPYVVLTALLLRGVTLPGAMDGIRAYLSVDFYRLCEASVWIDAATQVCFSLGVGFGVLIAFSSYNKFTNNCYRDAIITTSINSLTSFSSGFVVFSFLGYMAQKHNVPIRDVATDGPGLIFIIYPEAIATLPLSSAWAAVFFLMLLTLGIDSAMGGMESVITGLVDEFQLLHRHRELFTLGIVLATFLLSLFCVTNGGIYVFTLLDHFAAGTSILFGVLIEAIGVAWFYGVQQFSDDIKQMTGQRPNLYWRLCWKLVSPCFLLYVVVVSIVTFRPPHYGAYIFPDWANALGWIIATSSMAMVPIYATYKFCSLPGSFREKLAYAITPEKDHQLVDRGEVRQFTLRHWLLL
Structure (SMILES),Ki [1] [nM],Ki [2] [nM],Ki [3] [nM]
COCCCC/C(=N\OCCN)c1ccc(C(F)(F)F)cc1 [(1E)-5-methoxy-1-[4-(trifluoromethyl)phenyl]pentan-1-one O-(2-aminoethyl)oxime],> 10000,5000,–
COC(=O)[C@H](c1ccccc1)[C@H]1CCCCN1 [methyl (2R)-phenyl[(2R)-piperidin-2-yl]acetate],–,126,> 10000
CNCCC(Oc1ccccc1OC)c1ccccc1 (stereo not drawn) [3-(2-methoxyphenoxy)-N-methyl-3-phenylpropan-1-amine],–,0.46,–
CCn1cc(C(=O)O)c(=O)c2ccc(Cc3ccccc3)nc21,18.7,> 10000,–
C[C@H](N)Cc1ccccc1 [beta-aminopropylbenzene],–,1000,–
